Series [1] concerns β-lactamase produced by Serratia marcescens TN 81. The series is described as follows: stability to β-lactamase (relative ratio of hydrolysis rate). It counts as biochemical. The following applies: CER rated at 100. The text has this: (§1) In the above Table 3, the stabilities against the β-lactamase produced by Escherichia coli TN 713 and β-lactamase produced by Klebsiella oxytoca TN 1719 are expressed on a numerical scale, whereby the stabilities of PCG against these are rated at 100. Also, the stabilities against the β-lactamase produced by Serratia marcescens and β-lactamase produced by Proteus vulgaris are expressed on a numerical scale, whereby the stabilities of CER against these are rated at 100.

The subject of series [2] is β-lactamase produced by Escherichia coli TN 713. Described as above. It counts as biochemical. The note with it: PCG rated at 100.
Excerpt: as §1

Series [3] relates to β-lactamase produced by Proteus vulgalis GN 4413. The series is described as above. The following applies: CER rated at 100. It counts as biochemical.
Excerpt: as §1

The subject of series [4] is β-lactamase produced by Klebsiella oxytoca TN 1719. The description is as above. It counts as biochemical. The note with it: PCG rated at 100.
Excerpt: as §1

Series [5] can be described thus: stability in aqueous solution. It counts as physicochemical.
Series [6] can be described thus: property of the substance (amphoteric). The note with it: dihydrochloride is neutral. It is filed as physicochemical.
Series [7] relates to Escherichia coli 0-111. The series is described as follows: therapeutic effect to infectious disease of mice. The following applies: 0111; mice infected with Escherichia coli 0-111; subcutaneous (SC); TAN-547 hydrochloride(s). It counts as in vivo.
In series [8] the test system is Bacillus subtilis NIHJ PCI219. Description: antimicrobial spectrum (minimal inhibitory concentration). It is filed as cell-based. The following applies: NIHJPCI219, pH 7.0. From the text:
(§2) The antimicrobial spectra of the compound (I) are shown in Table 1. | *Culture medium: 17.5 g of Bacto antibiotic medium 3 (Difco), 5 g of | Bacto yeast extract (Difco), 20 g of Bacto agar (Difco), 1 l of distilled | water; pH 7.0 | The amount of inoculated microorganism: 1 loopful of about 10^6 /ml o | microorganism suspension.

The subject of series [9] is Staphylococcus aureus FDA 209P. Described as above. It is filed as cell-based. The note with it: FDA209P, pH 7.0.
Excerpt: as §2

Series [10] concerns Klebsiella pneumoniae IFO 3317. Described as above. It counts as cell-based. The note with it: IFO3317, pH 7.0.
Excerpt: as §2

For series [11], the system named is Proteus vulgalis IFO 3988. Described as above. It is filed as cell-based. The note with it: pH 7.0.
Excerpt: as §2

Series [12] concerns Citrobacter freundii IFO 12681. The series is described as above. It is filed as cell-based. The following applies: IFO12681, pH 7.0.
Excerpt: as §2

Series [13] concerns Salmonella typhimurium IFO 12529. The description is as above. It counts as cell-based. The following applies: Salmonella enterica, pH 7.0.
Excerpt: as §2

Series [14] deals with Serratia marcescens IFO 12648. The series is described as above. It counts as cell-based. The note with it: IFO12648, pH 7.0.
Excerpt: as §2

The subject of series [15] is Pseudomonas aeruginosa IFO 3080. The description is as above. It counts as cell-based. The following applies: IFO3080, pH 7.0.
Excerpt: as §2

The test system of series [16] is Acinetobacter calcoaceticus IFO 12552. The series is described as above. It counts as cell-based. The following applies: IFO12552, pH 7.0.
Excerpt: as §2

The subject of series [17] is Escherichia coli NIHJ JC-2. The description is as above. The note with it: NIHJJC2, pH 7.0. It is filed as cell-based.
Excerpt: as §2

Series [18] deals with Brevibacterium thiogenitalis ATCC 19240. Described as above. It is filed as cell-based. The following applies: Corynebacterium glutamicum, ATCC19240, pH 7.0.
Excerpt: as §2

The subject of series [19] is Alcaligenes faecalis IFO 13111. Described as above. It counts as cell-based. The note with it: IFO13111, pH 7.0.
Excerpt: as §2

Series [20] has as its system Bacillus megaterium IFO 12108. The series is described as above. The following applies: Priestia megaterium, IFO12108, pH 7.0. It counts as cell-based.
Excerpt: as §2

Series [21] can be described thus: solubility. It counts as physicochemical.
Setting [22] is: dimethylsulfoxide, methanol, acetone, ethyl acetate.
The mark [23] stands for this setting: water, aqueous acetone, aqueous alcohol.

In brackets after ≈: the same amount, converted by molar mass.

Turning to `O=C(Cc1cccs1)N[C@@H]1C(=O)N2C(C(=O)[O-])=C(C[n+]3ccccc3)CS[C@H]12` [CER, cephaloridine, reference compound], the “Relative ratio of hydrolysis rate” value was 100 in series [1], 21 in series [2], 100 in series [3] and 30 in [4].

Turning to `CCN1CCN(C(=O)N[C@@H](C(=O)N[C@@H]2C(=O)N3C(C(=O)O)=C(CSc4nnnn4C)CS[C@H]23)c2ccc(O)cc2)C(=O)C1=O` [CPZ, cefoperazone, reference compound], the “Relative ratio of hydrolysis rate” value in [1] is 11.6; in [2] it was 11.2; in series [3], 10.5; in series [4] it was 1.55.

Regarding `CC1(C)S[C@@H]2[C@H](NC(=O)Cc3ccccc3)C(=O)N2[C@H]1C(=O)O` [PCG, benzylpenicillin, reference compound], the “Relative ratio of hydrolysis rate” value in series [1] came out at 12; in [2], 100; in [3], 16; in [4], 100.

Turning to `CC(N)C(=O)NC(C)C(=O)NC(CCCNC(=N)N)C(O)CC(=O)OCC1=C(C(=O)O)N2C(=O)C(NC(=O)CCCC(N)C(=O)O)C2SC1` (stereo not shown) [TAN-547 E], the Stability result in series [5] (acidic aqueous solution) is listed as “Slightly unstable”; in [5] (basic aqueous solution), “Unstable”; in [5] (neutral aqueous solution), “Slightly unstable”. In addition, the “Property of the substance” value in series [6] is on record as “Amphoteric substance”. The compound also displayed an ED50 in series [7] of 21 mg/kg. Further, the minimal inhibitory concentration (MIC) is 1.56 µg/mL (≈ 2.18 µM) in [8]; 25 µg/mL (≈ 34.9 µM) in [9]; 100 µg/mL (≈ 140 µM) in series [10]; 50 µg/mL (≈ 69.9 µM) in series [11]; over 100 µg/mL in [12]; 50 µg/mL (≈ 69.9 µM) in series [13]. The minimal inhibitory concentration (MIC) was over 100 µg/mL in series [14]; over 100 µg/mL in [15]; 100 µg/mL (≈ 140 µM) in series [16]; 50 µg/mL (≈ 69.9 µM) in [17]; 3.13 µg/mL (≈ 4.37 µM) in series [18]; 12.5 µg/mL (≈ 17.5 µM) in series [19]. In addition, the MIC in [20] worked out at 1.56 µg/mL (≈ 2.18 µM). Moreover, the Solubility result in series [21] (setting [22]) is “Hardly soluble”; in series [21] (setting [23]) it was “Easily soluble”.

Consider `CC(N)C(=O)NC(C)C(=O)NC(C)C(=O)NC(CCCNC(=N)N)C(O)CC(=O)OCC1=C(C(=O)O)N2C(=O)C(NC(=O)CCCC(N)C(=O)O)C2SC1` (stereo not shown) [TAN-547 F], for which the Stability result in series [5] (acidic aqueous solution) is on record as “Slightly unstable”; in series [5] (basic aqueous solution), “Unstable”; in [5] (neutral aqueous solution) it was “Slightly unstable”. The “Property of the substance” value in series [6] is on record as “Amphoteric substance”. In series [7], the ED50 was found to be 25 mg/kg. The MIC in series [8] is 1.56 µg/mL (≈ 1.98 µM); in series [9], 12.5 µg/mL (≈ 15.9 µM); in series [10], 100 µg/mL (≈ 127 µM); in series [11], 100 µg/mL (≈ 127 µM); in series [12] it was over 100 µg/mL; in series [13] it was 100 µg/mL (≈ 127 µM). Besides, the MIC is over 100 µg/mL in series [14]; over 100 µg/mL in [15]; 100 µg/mL (≈ 127 µM) in series [16]; over 100 µg/mL in series [17]; 3.13 µg/mL (≈ 3.98 µM) in [18]; 12.5 µg/mL (≈ 15.9 µM) in series [19]. Moreover, the minimum inhibitory concentration (MIC) in series [20] stood at 1.56 µg/mL (≈ 1.98 µM). Moreover, the Solubility entry in series [21] (setting [22]) was “Hardly soluble”; in series [21] (setting [23]), “Easily soluble”.

For orientation: ED50 means the dose at which the effect has come halfway, by size or by number of responders. A low value points to an effect at a small dose. Usually MIC stands for the lowest concentration that inhibits growth of the organism.

Values taken from patent publication US4587333A, “Cephalosporins and their production” (Takeda Chemical Industries, Ltd., priority 1983, dated 1986).
